ChEMBL document CHEMBL1140045, “Crystal structures of rat vitamin D receptor bound to adamantyl vitamin D analogs: structural basis for vitamin D receptor antagonism and partial agonism” (J Med Chem, 2008)
Activity calls are given as the source filed them. No cut-off for these calls is given here.

Experiments:
[1] = target: T1, Vitamin D3 receptor (Homo sapiens) (UniProt P11473); test: Binding affinity to VDR relative to 1,25-Dihydroxyvitamin D3
T1 sequence (whole entry): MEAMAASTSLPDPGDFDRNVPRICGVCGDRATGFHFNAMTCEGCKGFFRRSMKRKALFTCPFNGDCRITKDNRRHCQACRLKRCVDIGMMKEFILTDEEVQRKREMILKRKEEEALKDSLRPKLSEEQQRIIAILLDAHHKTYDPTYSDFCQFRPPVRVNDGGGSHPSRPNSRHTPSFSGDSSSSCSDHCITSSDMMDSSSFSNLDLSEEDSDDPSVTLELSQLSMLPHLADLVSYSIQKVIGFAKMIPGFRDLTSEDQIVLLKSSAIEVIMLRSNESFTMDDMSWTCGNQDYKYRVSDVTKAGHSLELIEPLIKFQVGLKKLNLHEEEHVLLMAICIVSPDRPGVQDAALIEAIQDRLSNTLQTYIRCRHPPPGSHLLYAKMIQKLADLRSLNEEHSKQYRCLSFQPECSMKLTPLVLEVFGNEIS

[2] = target: T1, Vitamin D3 receptor (Homo sapiens); test: Agonist activity at VDR assessed as receptor transactivation by transient transcription assay relative to 1,25-Dihydroxyvitamin D3; format: functional
Vitamin D3 receptor [3] = target: T2, Vitamin D3 receptor (Homo sapiens, UniProt P11473); test: Agonist activity at VDR assessed as receptor transactivation by transient transcription assay; format: functional
T2 sequence (P11473 whole entry): T1 sequence (whole entry)

Vitamin D3 receptor [4] = target: T2, Vitamin D3 receptor; test: Antagonist activity at VDR expressed in COS7 cells assessed as inhibition of 1,25-Dihydroxyvitamin D3-induced response by transient transcription assay; format: functional, cell-based, COS-7

Structure (SMILES)	Activity [1]	Activity [2] [%]	EC50 (Vitamin D3 receptor [3]) [nM]	IC50 (Vitamin D3 receptor [4]) [nM]
C=C1[C@H](O)CC(=C/C=C2\CCC[C@]3(C)[C@@H]([C@@H](C)/C=C/C[C@@H](O)CC45CC6CC(CC(C6)C4)C5)CC[C@@H]23)C[C@H]1O	Active	10	24	–
C=C1[C@H](O)CC(=C/C=C2\CCC[C@]3(C)[C@@H]([C@H](C)/C=C/[C@@H](O)C45CC6CC(CC(C6)C4)C5)CC[C@@H]23)C[C@H]1O	20%	74	0.02	–
C=C1[C@H](O)CC(=C/C=C2\CCC[C@]3(C)[C@@H]([C@@H](C)/C=C/C[C@@H](O)C45CC6CC(CC(C6)C4)C5)CC[C@@H]23)C[C@H]1O	75%	15	1	3
